According to ChEMBL document CHEMBL1126010, “Conformationally restrained analogues of pravadoline: nanomolar potent, enantioselective, (aminoalkyl)indole agonists of the cannabinoid receptor” (J Med Chem, 1992):

What was measured:
Cannabinoid receptor = Cannabinoid receptor (Rattus norvegicus, UniProt Q9QZN9+P20272); assay: Concentration required to displace 50% of 0.5 nM [3H](aminoalkyl)indole binding to cannabinoid receptor in rat cerebellum membranes; type: cell membranes, Membrane
Mus musculus [1] = species on record: Mus musculus; assay: Inhibitory activity against PG synthesis was measured in mouse brain microsomes.; type: functional
Mus musculus [2] = species on record: Mus musculus; assay: In vitro inhibition of electrically stimulated contractions of isolated mouse vas deferens.; type: functional
[3] = molecular target: Cannabinoid receptor (Rattus norvegicus) (UniProt Q9QZN9+P20272); conditions: Cerebellum; Membrane; at 1 µM
Description: Inhibition of 0.5 nM [3H](Aminoalkyl)indole binding to cannabinoid receptor in rat cerebellum membranes at 1 uM

Mus musculus [4] = species on record: Mus musculus; assay: Inhibitory activity against PG synthesis was measured in mouse brain microsomes at 30 uM; type: functional
Mus musculus [5] = assay: In vivo antinociceptive effect was tested in the mouse acetylcholine writhing assay after 100 mg/kg po administration; type: functional
Mus musculus [6] = assay: (§1) in vivo antinociceptive effect was tested in the mouse acetylcholine writhing assay after iv administration; type: functional
Mus musculus [7] = assay: In vivo antinociceptive effect was tested in the mouse acetylcholine writhing assay after po administration; type: functional
Mus musculus [8] = assay: as §1; type: functional, organism-based
Mus musculus [9] = assay: In Vivo antinociceptive effect was tested in the mouse acetylcholine writhing assay after 100 mg/kg po administration; type: functional
Mus musculus [10] = species on record: Mus musculus; assay: In vitro inhibition of electrically stimulatedcontradions was measured on isolated mouse vas deferens at 10 uM; type: functional

Sequence of Cannabinoid receptor (Rattus norvegicus) (P20272 whole entry, looked up): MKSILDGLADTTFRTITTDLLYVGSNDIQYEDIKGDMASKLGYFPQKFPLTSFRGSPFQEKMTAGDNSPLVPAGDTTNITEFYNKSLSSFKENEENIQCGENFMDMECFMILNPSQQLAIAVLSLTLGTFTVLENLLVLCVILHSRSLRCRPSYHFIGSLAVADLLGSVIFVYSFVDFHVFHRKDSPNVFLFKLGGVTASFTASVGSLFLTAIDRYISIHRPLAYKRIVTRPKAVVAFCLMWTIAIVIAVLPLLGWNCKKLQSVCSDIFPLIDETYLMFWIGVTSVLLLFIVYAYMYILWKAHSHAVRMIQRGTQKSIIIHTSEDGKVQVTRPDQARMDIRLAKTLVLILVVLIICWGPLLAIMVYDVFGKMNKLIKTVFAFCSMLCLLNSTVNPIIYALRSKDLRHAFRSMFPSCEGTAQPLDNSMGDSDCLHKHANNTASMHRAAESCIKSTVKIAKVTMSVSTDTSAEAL
Sequence of Cannabinoid receptor (Rattus norvegicus) (Q9QZN9 whole entry, looked up): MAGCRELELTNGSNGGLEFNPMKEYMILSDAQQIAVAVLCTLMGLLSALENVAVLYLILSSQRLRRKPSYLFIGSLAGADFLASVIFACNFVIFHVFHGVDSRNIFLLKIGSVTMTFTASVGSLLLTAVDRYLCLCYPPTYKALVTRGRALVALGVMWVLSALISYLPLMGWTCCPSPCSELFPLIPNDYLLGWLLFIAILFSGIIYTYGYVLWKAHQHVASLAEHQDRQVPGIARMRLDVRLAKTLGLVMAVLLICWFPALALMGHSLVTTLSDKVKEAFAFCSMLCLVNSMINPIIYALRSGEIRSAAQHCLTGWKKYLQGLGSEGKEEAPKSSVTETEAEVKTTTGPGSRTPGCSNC

| Compound | IC50 (Cannabinoid receptor) [nM] | IC50 (Mus musculus [1]) [nM] | IC50 (Mus musculus [2]; Mus musculus) [nM] | also measured |
| --- | --- | --- | --- | --- |
| COc1ccc(C(=O)c2c(C)n3c4c(cccc24)OC[C@@H]3CN2CCOCC2)cc1 | 17500 | 30000 | > 10000 |  |
| COc1ccc(C(=O)c2c(C)n3c4c(cccc24)CC(N2CCOCC2)C3)cc1 (centres undefined) |  |  | > 10000 | inhibition [3]: 1.4%; inhibition (Mus musculus [4]): 12%; inhibition in vivo at 100 mg/kg (Mus musculus [5]): 30% |
| Cc1c(C(=O)c2cccc3c(Br)cc(Br)cc23)c2cccc3c2n1[C@H](CN1CCOCC1)CO3 | 48.3 |  |  |  |
| Cc1c(C(=O)c2ccccc2F)c2cccc3c2n1C(CN1CCOCC1)CO3 (centres undefined) | 1426 | 42000 | 76 |  |
| COc1ccc(C(=O)c2c3n(c4ccccc24)CC(N2CCOCC2)C3)cc1 (centres undefined) |  |  | > 10000 | inhibition (Mus musculus [4]): 18% |
| Cc1c(C(=O)c2cccc3ccccc23)c2cccc3c2n1[C@H](CN1CCOCC1)CO3 (stereo in doubt) [WIN-552122] |  | 9000 |  | IC50 (Mus musculus [2]): 0.43 nM |
| COc1ccc(C(=O)c2c(C)n(CCN3CCOCC3)c3ccccc23)cc1 [PRAVADOLINE] | 3155 | 5000 | 453 | ED50 (Mus musculus [6]): 4 mg/kg; ED50 (Mus musculus [7]): 26 mg/kg |
| Cc1c(C(=O)c2ccc3ncccc3c2)c2cccc3c2n1C(CN1CCOCC1)CO3 (centres undefined) | 132.5 | 26000 | 21 |  |
| COc1ccc(C(=O)c2c3n(c4ccccc24)C(CN2CCOCC2)CC3)cc1 (centres undefined) | 3053 |  | 320 |  |
| C[C@H](CCCc1ccccc1)Oc1cc(O)c2c(c1)N[C@@H](C)[C@@H]1CC[C@@H](O)C[C@@H]21 | 0.46 |  | 2.3 |  |
| Cc1c(C(=O)c2ccc(Br)c3ccccc23)c2cccc3c2n1C(CN1CCOCC1)CO3 (centres undefined) | 2.32 |  | 2.2 |  |
| COc1ccc(C(=O)c2cn3c4c(cccc24)OCC3CN2CCOCC2)cc1 (centres undefined) | 249 |  | 45.5 | inhibition [3]: -9%; ED50 (Mus musculus [7]): 2 mg/kg |
| COc1ccc(C(=O)c2c(C)n3c4c(cccc24)OC[C@H]3CN2CCOCC2)cc1 | 106 | 50000 | 44 |  |
| COc1ccc(C(=O)c2c(C)n3c4c(cccc24)OCC3CN2CCOCC2)cc1 (centres undefined) | 152 | 72000 | 123 | IC50 (Mus musculus [8]): 4000 nM; inhibition in vivo at 100 mg/kg (Mus musculus [9]): 30% |
| COc1ccc2c(c1)c(CC(=O)O)c(C)n2C(=O)c1ccc(Cl)cc1 [INDOMETHACIN] |  | 500 | > 10000 |  |
| O=C(c1cccc2ccccc12)c1cn2c3c(cccc13)OCC2CN1CCOCC1 (centres undefined) | 7.37 |  | 2 |  |
| Cc1c(C(=O)c2cccc3ccccc23)c2cccc3c2n1[C@H](CN1CCOCC1)CO3 (stereo in doubt; 21) [WIN-552122] |  |  |  | IC50 (Mus musculus [2]): 6 nM |
| Cc1c(C(=O)c2cccc3ccccc23)c2cccc3c2n1[C@@H](CN1CCOCC1)CO3 |  | 10000 | > 10000 | inhibition in vivo at 100 mg/kg (Mus musculus [9]): 10% |
| CCc1c(C(=O)c2ccc(OC)cc2)c2cccc3c2n1C(CN1CCOCC1)CO3 (centres undefined) |  |  |  | inhibition [3]: 27%; inhibition at 10 µM (Mus musculus [10]): 28% |
| COc1ccc(C(=O)c2c3n(c4ccccc24)CCC3N2CCOCC2)cc1 (centres undefined) |  |  | > 10000 | inhibition (Mus musculus [4]): 49%; ED50 (Mus musculus [7]): 91 mg/kg |
